Experimental data reported in paper PMC9774391 (ACS Omega, 2022).

Legend:
Beta Amyloid 1–42 (Aβ42) = target: T1, Beta Amyloid 1–42 (Aβ42) (Homo sapiens, UniProt P05067); assay: Beta Amyloid 1–42 (Aβ42) inhibitor screening assay; format: biochemical; settings: for inhibition at 1000 µM: 10^–3 M; for inhibition at 1000 µM / inhibition at 100 µM: read-out: % β-amyloid plaque inhibition; for inhibition at 100 µM: 10^–4 M; for IC50: read-out: IC50 on β-amyloid plaque aggregation
T1 construct: The Beta Amyloid 1–42 (Aβ42) Ligand Screening Assay kit; purchased BioVision, Milpitas, CA
Description: The Beta Amyloid 1–42 (Aβ42) Ligand Screening Assay kit (BioVision, Milpitas, CA) technique based on the fluorometric approach served as the basis for the experimental process.[21],[28],[29]

MAO-A [1] = target: T2, MAO-A (Homo sapiens, UniProt P21397); assay: In vitro MAO-A inhibition assay (fluorometric); format: biochemical; settings: for inhibition at 1000 µM: 10^–3 M; for inhibition at 10 µM: 10^–5 M; for inhibition at 1 µM: 10^–6 M; for inhibition at 0.1 µM: 10^–7 M; for inhibition at 0.01 µM: 10^–8 M; for inhibition at 0.001 µM: 10^–9 M; for fold stronger MAO-A inhibition compared to moclobemide: ratio of IC50 values
T2 sequence (P21397 1-527): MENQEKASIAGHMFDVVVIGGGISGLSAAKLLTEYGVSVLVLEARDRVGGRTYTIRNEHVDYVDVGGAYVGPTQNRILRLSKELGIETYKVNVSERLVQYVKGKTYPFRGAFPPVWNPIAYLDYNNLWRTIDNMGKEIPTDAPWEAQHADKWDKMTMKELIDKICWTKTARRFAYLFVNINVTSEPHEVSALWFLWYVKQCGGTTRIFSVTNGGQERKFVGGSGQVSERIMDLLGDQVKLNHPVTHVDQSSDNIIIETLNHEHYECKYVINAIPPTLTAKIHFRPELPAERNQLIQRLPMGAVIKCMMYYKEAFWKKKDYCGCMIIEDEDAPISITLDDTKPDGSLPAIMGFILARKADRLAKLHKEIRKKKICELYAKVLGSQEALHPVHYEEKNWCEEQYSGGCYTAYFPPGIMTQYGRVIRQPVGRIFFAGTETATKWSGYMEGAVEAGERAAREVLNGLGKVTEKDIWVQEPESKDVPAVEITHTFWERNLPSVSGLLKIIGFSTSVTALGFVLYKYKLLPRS

MAO-B = target: T3, MAO-B (Homo sapiens, UniProt P27338); assay: In vitro MAO-B inhibition assay (fluorometric); format: biochemical; settings: for inhibition at 1000 µM: 10^–3 M; for inhibition at 100 µM: 10^–4 M; for inhibition at 10 µM: 10^–5 M; for inhibition at 1 µM: 10^–6 M; for inhibition at 0.1 µM: 10^–7 M; for inhibition at 0.01 µM: 10^–8 M; for inhibition at 0.001 µM: 10^–9 M
T3 sequence (P27338 1-520): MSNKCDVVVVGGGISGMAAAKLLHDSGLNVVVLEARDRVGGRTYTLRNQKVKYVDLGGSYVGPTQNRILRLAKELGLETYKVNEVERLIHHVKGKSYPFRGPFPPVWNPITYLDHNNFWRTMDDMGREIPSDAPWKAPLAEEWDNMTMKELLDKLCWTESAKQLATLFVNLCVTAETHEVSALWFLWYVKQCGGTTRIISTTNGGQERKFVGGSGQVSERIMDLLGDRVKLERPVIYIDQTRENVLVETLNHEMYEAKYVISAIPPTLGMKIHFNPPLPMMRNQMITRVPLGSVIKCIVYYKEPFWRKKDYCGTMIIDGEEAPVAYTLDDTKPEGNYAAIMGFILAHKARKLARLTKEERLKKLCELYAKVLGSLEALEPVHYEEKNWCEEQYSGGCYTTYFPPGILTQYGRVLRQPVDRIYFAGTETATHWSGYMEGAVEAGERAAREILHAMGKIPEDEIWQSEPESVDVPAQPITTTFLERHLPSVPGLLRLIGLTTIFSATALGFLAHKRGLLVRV

[2] = DPPH free-radical scavenging activity assay; settings: serial dilution 10^–3–10^–9 M; read-out: IC50 on DPPH antioxidant activity
Method: This approach is based on evaluating the free-radical scavenging abilities of the stable 1,1-diphenyl-2-picrylhydrazyl (DPPH) radical. To create the DPHH solution, 9.86 mg of DPPH was weighed and diluted to 25 mL with methanol. The test wells were then filled with 100 μL of the DPPH solution and 100 μL of the test solutions. Only 200 μL of methanol was used for the blank reading, while the control reading required the usage of 100 μL each of methanol and the DPPH solution. Following incubation, a spectrophotometric measurement at 517 nm was carried out.[26],[27]

MAO-A [3] = target: T2, MAO-A; assay: Enzyme kinetics on MAO-A (Lineweaver–Burk); format: biochemical
Method: (§1) The experimental procedures used in the kinetic investigations were identical to those used in the inhibition experiments. […]. Acetylthiocholine iodide (ATC) and butyrylthiocholine iodide (BTC) solutions were utilized as the substrates for the ChE enzymes, with serial dilutions at six different concentrations (600, 300, 150, 75, 37.5, and 18.75 μM). The tyramine substrate solution (concentrations ranging from 20 to 0.625 μM) was produced for the MAO enzymes at six different concentrations. Separate measurements were conducted both with and without an inhibitor. Using the Microsoft Office Excel 2013 program, the resulting absorbance values were compared to various substrate concentrations, and Lineweaver–Burk plots were created.[19]−[22]
(§2) The absorbance data from the experiments and the substrate concentrations were used to generate Lineweaver–Burk plots. The graphic’s x-axis stands for 1/[S] […] […]. The intersection of these four lines on the diagram was used to define the type of substrate and inhibitor reaction against the enzyme.
(§3) Reversible and irreversible inhibition of enzymes are the two categories that inhibition is commonly subdivided into. In irreversible inhibition, the inhibitor either creates a recalcitrant complex structure or establishes a covalent bond with the enzyme. […]

Cytotoxicity test (MTT) = format: cell-based; settings: NIH/3T3 mouse embryonic fibroblast cells (ATCC CRL-1658), NIH/3T3 mouse fibroblast healthy cell line
Method: The NIH/3T3 cells were incubated according to the manufacturer’s recommendations. In 96-well plates, NIH/3T3 cells were seeded at a density of 1 × 10^4 cells per well. The MTT test was conducted in line with the previously mentioned standards.[19],[22],[23],[28],[30]

BChE [4] = target: T4, BChE (Homo sapiens, UniProt P06276); assay: biochemical; settings: for inhibition at 1000 µM: 10^–3 M; for inhibition at 100 µM: 10^–4 M
Method: (§4) According to the modified Ellman approach outlined in our team’s earlier work, the AChE and BChE inhibitory activities of the obtained compounds were evaluated.[18]−[21]

AChE [5] = target: T5, AChE (Homo sapiens, UniProt P22303); assay: biochemical; settings: for inhibition at 1000 µM: 10^–3 M; for inhibition at 100 µM: 10^–4 M; for inhibition at 10 µM: 10^–5 M; for inhibition at 1 µM: 10^–6 M; for inhibition at 0.1 µM: 10^–7 M; for inhibition at 0.01 µM: 10^–8 M; for inhibition at 0.001 µM: 10^–9 M
Method: as §4

AChE [6] = target: T5, AChE; assay: Enzyme kinetics on AChE (Lineweaver–Burk); format: biochemical
Method: as §1, §2, §3

BChE [7] = target: T4, BChE; assay: Enzyme kinetics on BChE (Lineweaver–Burk); format: biochemical
Method: as §1, §2, §3

T5 sequence (P22303 32-614): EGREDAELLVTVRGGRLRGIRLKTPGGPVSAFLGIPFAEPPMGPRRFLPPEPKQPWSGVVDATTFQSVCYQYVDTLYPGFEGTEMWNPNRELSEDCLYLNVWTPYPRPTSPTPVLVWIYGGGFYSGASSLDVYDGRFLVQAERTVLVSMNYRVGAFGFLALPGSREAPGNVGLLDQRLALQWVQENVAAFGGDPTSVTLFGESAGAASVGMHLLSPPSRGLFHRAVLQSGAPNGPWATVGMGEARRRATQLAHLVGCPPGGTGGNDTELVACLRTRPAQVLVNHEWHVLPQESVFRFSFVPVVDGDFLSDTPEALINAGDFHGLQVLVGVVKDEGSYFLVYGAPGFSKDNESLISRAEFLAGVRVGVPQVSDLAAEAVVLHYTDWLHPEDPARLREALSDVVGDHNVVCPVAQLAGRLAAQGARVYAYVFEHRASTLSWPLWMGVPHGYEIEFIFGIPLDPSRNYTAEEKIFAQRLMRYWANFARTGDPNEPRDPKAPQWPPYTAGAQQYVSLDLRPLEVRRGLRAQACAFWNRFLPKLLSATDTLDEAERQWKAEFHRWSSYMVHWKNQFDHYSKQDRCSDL
T1 sequence (P05067 672-713 limits assumed): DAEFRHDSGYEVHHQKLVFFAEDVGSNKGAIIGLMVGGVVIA
T4 sequence (P06276 29-602): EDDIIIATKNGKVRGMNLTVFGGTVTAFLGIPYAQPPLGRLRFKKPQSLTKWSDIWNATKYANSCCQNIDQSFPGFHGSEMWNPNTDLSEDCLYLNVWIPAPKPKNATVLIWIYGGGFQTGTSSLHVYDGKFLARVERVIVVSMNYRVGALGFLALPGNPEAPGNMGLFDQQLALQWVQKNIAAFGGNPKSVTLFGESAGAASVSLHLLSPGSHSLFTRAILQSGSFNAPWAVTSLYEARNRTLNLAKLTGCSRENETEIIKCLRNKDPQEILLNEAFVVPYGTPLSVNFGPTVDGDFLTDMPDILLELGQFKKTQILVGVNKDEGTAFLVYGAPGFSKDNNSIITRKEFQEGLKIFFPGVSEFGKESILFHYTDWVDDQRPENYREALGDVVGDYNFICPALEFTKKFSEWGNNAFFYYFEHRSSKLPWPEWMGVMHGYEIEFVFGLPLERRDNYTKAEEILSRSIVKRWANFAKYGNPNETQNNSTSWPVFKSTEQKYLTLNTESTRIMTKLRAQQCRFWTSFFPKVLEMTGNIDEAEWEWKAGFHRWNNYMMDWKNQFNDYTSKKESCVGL

SMILES	inhibition at 1000 µM (Beta Amyloid 1–42 (Aβ42)) [%]	inhibition at 100 µM (Beta Amyloid 1–42 (Aβ42)) [%]	IC50 (Beta Amyloid 1–42 (Aβ42)) [nM]	inhibition at 1000 µM (MAO-A [1]) [%]	IC50 (MAO-B) [nM]	inhibition at 1000 µM (MAO-B) [%]	inhibition at 100 µM (MAO-B) [%]	inhibition at 10 µM (MAO-B) [%]	inhibition at 1 µM (MAO-B) [%]	inhibition at 0.1 µM (MAO-B) [%]	inhibition at 0.01 µM (MAO-B) [%]	inhibition at 0.001 µM (MAO-B) [%]	IC50 (Cytotoxicity test (MTT)) [nM]	inhibition at 1000 µM (BChE [4]) [%]	inhibition at 100 µM (BChE [4]) [%]	IC50 (AChE [5]) [nM]	inhibition at 1000 µM (AChE [5]) [%]	inhibition at 100 µM (AChE [5]) [%]	inhibition at 10 µM (AChE [5]) [%]	inhibition at 1 µM (AChE [5]) [%]	other results
CCCN(C)CC(=O)Nc1ccc(/C=C2\Cc3cc(OC)ccc3C2=O)cc1 [D28]	82.7 ± 1.68	75.6 ± 1.04	147 ± 5.3	89.6 ± 1.29	40.9 ± 1.9	92.6 ± 1.33	89.3 ± 1.24	80.5 ± 1.01	75.2 ± 1.08	67 ± 0.958	41.5 ± 0.547	18.8 ± 0.421	6520 ± 175	61.3 ± 0.997	36.6 ± 0.667	24.8 ± 1	98.6 ± 1.21	95.3 ± 1.31	92.8 ± 1.03	87.1 ± 1.06	IC50 (MAO-A [1]): 111 ± 4.7 nM; inhibition at 10 µM (MAO-A [1]): 72.7 ± 1.11%; inhibition at 1 µM (MAO-A [1]): 63.4 ± 1.08%; inhibition at 0.1 µM (MAO-A [1]): 59 ± 0.895%; inhibition at 0.01 µM (MAO-A [1]): 39.2 ± 0.714%; inhibition at 0.001 µM (MAO-A [1]): 18.7 ± 0.521%; fold stronger MAO-A inhibition compared to moclobemide (MAO-A [1]): 50 ×; IC50 [2]: 210 ± 10 nM; type of inhibition of MAO-A (MAO-A [3]; Lineweaver–Burk plots): noncompetitive inhibition; Ki (MAO-A [3]; secondary plot of Lineweaver–Burk data, read-out: steady-state inhibition constant (Ki), MAO-A): 107 nM; inhibition at 0.1 µM (AChE [5]): 72 ± 0.958%; inhibition at 0.01 µM (AChE [5]): 36 ± 0.623%; inhibition at 0.001 µM (AChE [5]): 19.4 ± 0.455%
CCCN(C)CC(=O)Nc1ccc(/C=C2\Cc3ccc(OC)cc3C2=O)cc1 [D29]	80.3 ± 2.05	71.9 ± 1.88	124 ± 4.9	≥ 90	41.2 ± 1.8	91.8 ± 1.37	87.6 ± 1.25	82.2 ± 1.21	74.2 ± 1.3	66 ± 1.84	40.3 ± 0.745	20.4 ± 0.628	73600 ± 1760	61.1 ± 0.99	26.914 ± 0.019	22.4 ± 0.8	97.2 ± 1.32	94.3 ± 1.46	91.8 ± 1.21	88.3 ± 1.02	IC50 (MAO-A [1]): 112 ± 4.2 nM; inhibition at 10 µM (MAO-A [1]): 77.4 ± 1.13%; inhibition at 1 µM (MAO-A [1]): 67.3 ± 1.08%; inhibition at 0.1 µM (MAO-A [1]): 49.4 ± 0.567%; inhibition at 0.01 µM (MAO-A [1]): 34 ± 0.422%; inhibition at 0.001 µM (MAO-A [1]): 24.6 ± 0.328%; fold stronger MAO-A inhibition compared to moclobemide (MAO-A [1]): 50 ×; IC50 [2]: 188 ± 8 nM; type of inhibition of AChE (AChE [6]; Lineweaver–Burk plots): mixed inhibition; Ki (AChE [6]; secondary plot of Lineweaver–Burk data, read-out: steady-state inhibition constant (Ki), AChE): 18.5 nM; inhibition at 0.1 µM (AChE [5]): 75.6 ± 0.974%; inhibition at 0.01 µM (AChE [5]): 34.3 ± 0.857%; inhibition at 0.001 µM (AChE [5]): 20.1 ± 0.357%
COc1cc2c(cc1OC)C(=O)/C(=C/c1ccc(NC(=O)CN(C)CCCN(C)C)cc1)C2 [D39]	≥ 80	69.8 ± 0.778	197 ± 7.9	89.8 ± 1.44	39.3 ± 1.1	95.3 ± 1.06	87.2 ± 1.82	84.8 ± 1.64	78.6 ± 1.25	60.2 ± 0.956	36.2 ± 0.488	25.6 ± 0.359	12300 ± 416	92.8 ± 1.36	87.3 ± 1.25	45.8 ± 0.9	92.6 ± 1.62	88.7 ± 1.19	81.7 ± 1.16	73.3 ± 0.952	inhibition at 100 µM (MAO-A [1]; 10^–4 M): 36.2 ± 0.756%; type of inhibition of BChE (BChE [7]; Lineweaver–Burk plots): mixed inhibition; Ki (BChE [7]; secondary plot of Lineweaver–Burk data, read-out: steady-state inhibition constant (Ki), BChE): 61.7 nM; IC50 (BChE [4]): 75 ± 3.2 nM; inhibition at 10 µM (BChE [4]; 10^–5 M): 81.4 ± 1.33%; inhibition at 1 µM (BChE [4]; 10^–6 M): 73.7 ± 1.15%; inhibition at 0.1 µM (BChE [4]; 10^–7 M): 55.4 ± 0.678%; inhibition at 0.01 µM (BChE [4]; 10^–8 M): 34.7 ± 0.511%; inhibition at 0.001 µM (BChE [4]; 10^–9 M): 21.6 ± 0.485%; inhibition at 0.1 µM (AChE [5]): 64.3 ± 0.687%; inhibition at 0.01 µM (AChE [5]): 40.2 ± 0.528%; inhibition at 0.001 µM (AChE [5]): 20.5 ± 0.492%
